This note sets out measurements from patent publication US20240277705A1, “DOSAGE REGIMENS FOR ECUBECTEDIN” (PHARMA MAR S.A., priority 2021, published 2024).

Entries after “also recorded” stand apart in the source; their conditions may differ.

Series [1] can be described thus: MRI-H-121 mouse xenograft study, tolerability. Type of series: in vivo, mice. How it is done:
Tumor bearing animals were randomly allocated into 2 groups (N=10/group): PM14 administered at 1.25 mg/kg and placebo. All treatments were intravenously administered once a week for 3 consecutive weeks (days 0, 7 and 14).
Tumor volume and animal body weights were measured 2-3 times per week starting from the first day of treatment.
Treatment tolerability was assessed by monitoring body weight evolution, clinical signs of systemic toxicity, as well as evidences of local damage in the injection site.
Treatments producing >20% lethality and/or 20% net body weight loss were considered toxic. Animals were euthanized when their tumors reached ca. 2,000 mm^3 and/or severe necrosis was seen.

The subject of series [2] is MEXF 1341L (melanoma). Put plainly: Propidium iodide monolayer cell proliferation assay, MEXF 1341L. Conditions: MEXL 1341L. Type of series: cell-based, human. How it is done:
Cell proliferation assay: A modified propidium iodide (PI) based monolayer assay was used to assess the anti-cancer activity of the compounds (Dengler WA, Schulte J, Berger DP, Mertelsmann R, Fiebig HH, Anti-Cancer Drugs 1995, 6: 522-532). Briefly, cells were harvested from exponential phase cultures, counted and plated in 96 well flat-bottom microtiter plates at a cell density of 4,000 to 30,000 cells/well dependent on the cell line's growth rate. After a 24 h recovery period, to allow the cells to resume exponential growth, 10 μl of culture medium (4 control wells/cell line/plate) or of culture medium with test compounds were added. PM14 was applied at ten concentrations in half-log increments in duplicates up to 3.16 pM and treatment continued for four days. […] After an incubation period of 1-2 hours at room temperature, fluorescence (FU) was measured using the Enspire Multimode Plate Reader (excitation A=530 nm, emission A=620 nm) to quantify the amount of attached viable cells.
IC50 and IC70 values were calculated by 4 parameter non-linear curve fit using Oncotest Warehouse Software. […]
IC50 values were determined as described in Example 2, but using the following human cancer cell lines: • MEXF 276L (melanoma) • MEXF 462NL (melanoma) • MEXF 1341L (melanoma)

In series [3] the test system is advanced solid tumors. Put plainly: Phase I dose-escalating study, antitumor activity. Type of series: in vivo, human. To be noted: patients, various cancers. The source says: Antitumor response will be assessed using the RECIST v.1.1 and/or serum tumor markers as appropriate (see above).
Open-label, dose-escalating, phase I trial of PM14 administered as a 3-hour infusion i.v. every 3 weeks (q3wk) in human patients (pts) with advanced solid tumors, adequate organ function and ECOG PS score of 0-1. Two schedules were explored: Schedule A (Day 1 [D1], Day 8 [D8]) and Schedule B (D1).
Secondary Endpoints • Safety: patients will be evaluable for safety if they have received at least one partial infusion of PM14. AEs will be graded according to the NCI-CTCAE v.4. Additionally, treatment-related discontinuations and treatment compliance (dose reduction, skipped doses and/or treatment delays due to AEs), will be described. • Pharmacokinetics: PK analyses will be evaluated in plasma and urine by standard non-compartmental analysis (compartmental modeling may be performed if appropriate). […] Their mutational status might also be analyzed, if relevant. Their correlation with the clinical response and outcome after treatment will be assessed. • Efficacy: patients will be evaluable for efficacy if they receive at least one complete infusion of PM14 and have at least one clinical or radiological tumor assessment as per RECIST v.1.1 or serum markers, or if they are considered to have failed treatment. […]

Usually IC50 stands for the point on the concentration scale where inhibition reaches its midpoint. For `COc1c(C)cc2c(c1O)[C@@H]1[C@@H]3[C@@H]4SC[C@]5(N[C@H](CO)Cc6c5[nH]c5ccccc65)C(=O)OC[C@@H](c5c6c(c(C)c(OC(C)=O)c54)OCO6)N3[C@@H](O)[C@H](C2)N1C` [PM14, ECUBECTEDIN], the mortality result in series [1] (1.25 mg/kg i.v. days 0, 7 and 14) is recorded as “No mortality”. Also, the “mean body weight reduction” value in series [1] (Day 16, 1.25 mg/kg i.v. days 0, 7 and 14, reversible) is given as “ca. −15.0%”. For the same compound, the tolerability entry in series [1] (MRI-H-121 tumor bearing animals, 1.25 mg/kg) is reported as “well tolerated”. Moreover, in series [2] (Homo sapiens, MEXF 1341L, read-out: IC50, μM (geometric mean)), the IC50 came out at 0.0004 µM. The “IC70, μM (geometric mean)” value in series [2] is 0.0006 µM. Moreover, the antitumor response entry in series [3] was “prolonged tumor stabilizations; also recorded: stable disease (SD)”.
